Measured values from US6908591B2, “Methods for sterilizing biological materials by irradiation over a temperature gradient” (Clearant, Inc., priority 2002, dated 2005).
Each block holds one compound with its values, some of them ahead of it.

Key:
[1] = system: Porcine Pulmonary Valve (PV) Heart valves; test: HPLC and gel analysis of heart valve cusps gamma irradiated to 30 kGy at -20° C. (Example 1); conditions: 1.584 kGy/hr
Procedure: In this experiment, porcine heart valves were gamma irradiated in the presence of polypropylene glycol 400 (PPG400) and, optionally, a scavenger, to a total dose of 30 kGy (1.584 kGy/hr at −20° C.).
5. 1.2 ml of PPG were added to two tubes (one of these tubes was designated 0 kGy and the other tube was designated 30 kGy): • 1.2 ml of 125 mM Trolox C in PPG were added to another two tubes • 1.2 ml of SCb stabilizer mixture—comprising of 1.5 ml 125 mM Trolox C, 300 μl 1 M Lipoic Acid, 600 μl 0.5 M Coumaric Acid and 600 μl 0.5 M n-Propyl Gallate (Final concentrations: 62.5 mM, 100 mM, 100 mM and 100 mM respectively) were added to the final two tubes.
6. Tubes were incubated at 4° C., with rocking for about 60 hours.
Samples were irradiated at a rate of 1.584 kGy/hr at −20° C. to a total dose of 30 kGy.
3. Samples were weighed, transferred to hydrolysis vials and 6 N HCl added at a volume of 20 mg tissue/ml HCl:
4. Samples were hydrolyzed at 110° C. for approximately 23 hours.

type I collagen [2] = test: Turbidity assay of collagen fibril formation after irradiation (Example 17); type: biochemical; conditions: 45 kGy
Procedure: Phosphate buffer solution of 40 mM sodium phosphate and 100 mM NaCl; pH=7.66. Methods: […] Following irradiation, the samples were analyzed by SDS-PAGE. Additionally, the samples were diluted 1:2 with water to give collagen concentrations of 0.5 mg/ml and a turbidity assay was performed to detect collagen fibril formation. Collagen fibril formation was initiated by adding 100 μl of phosphate buffer solution. The assay was done in triplicate using a microtiter plate reader at 340 nm wavelength.

ACL collagen [3] = test: Turbidity assay of collagen isolated from ACL irradiated in alcohols (Example 11); type: biochemical; conditions: even at 0.5 mg/ml
Procedure: 7. Turbidity assay was performed for these collagens using at [1 mg/ml].
A turbidity assay was performed for the collagen isolated from these ACL samples. Correlation was found between the ACL collagen before and after irradiation.

ACL collagen [4] = test: SDS-PAGE densitometry of purified pepsin-digested collagen, ACL in alcohols irradiated at -80° C. to 50 kGy (Example 11); conditions: 1.53 kGy/hr
Procedure: This experiment was to determine whether alcohols can protect ACL tissue samples from γ-irradiation at −80° C. with 50 kGy. 1. […] 2. These samples were then incubated with different alcohols for 2 hr in a shaking incubator at 37° C. 3. After 2 hr incubation, these ACL tubes were decanted and fresh solutions were added to each ACL containing tubes and incubated overnight at −80° C. 4. These samples were irradiated with 0 and 50 kGy at 1.53 kGy/hr at NIST. 6. ACL were digested with pepsin and collagen purified by precipitating with salt. 8. Ran 10 μg of each purified pepsin-digested collages on 4-12% gel and quantified both alpha 1 and alpha 2 chains.

ACL collagen [5] = test: SDS-PAGE of purified pepsin-digested collagen, ACL in high salt, low salt, neutral or low pH irradiated at -80° C. to 50 kGy (Example 10)
Procedure: This experiment was to determine whether high salt, low salt, neutral pH and low pH treated ACL will help to deliver stabilizers into ACL tissue to protect it from γ-irradiation at -80° C. with 50 kGy. 1. Prepared stock solution 2M sodium ascorbate (Spectrum […], Lot#QP0839) in water. Samples were prepared with the following: • a) DPBS • b) DPBS/200 mM sodium ascorbate • c) 0.5N HOAc • d) 0.5N HOAc/200 mM sodium ascorbate • e) 20 mM sodium phosphate pH 7.6 • f) 20 mM sodium phosphate pH 7.6/200 mM sodium ascorbate • g) 20 mM sodium phosphate pH 7.6/1M NaCl • h) 20 mM sodium phosphate pH 7.6/1M NaCl/200 mM sodium ascorbate. 2. These samples were irradiated with 0 and 50 kGy at 1.53 kGy/hr at NIST. 4. ACL were digested with pepsin and collagen purified by precipitating with salt.

[6] = Procedure: • Tissue—Porcine Pulmonary Valve (PV) Heart valves were harvested prior to use and stored. • Tissue Preparation Reagents— • Polypropylene Glycol 400.
An additional 1 ml PPG was added and further water bath sonicated.
The 0.5M solution was soluble after a 20-30 minute water bath sonication.

[7] = system: porcine ACL extractable proteins; test: Guanidine HCl extracts of freeze dried ACL irradiated to 45 kGy: SDS-PAGE, BCA assay, densitometry (Example 6); conditions: 45 kGy versus 0 kGy control
Procedure: Guanidine HCL extraction was done with 4 M GuHCl in 0.5 NaOAC pH 5.8 and 5 mM EDTA, 10 mM NEM, 5 mM Benzamidine and 1 mM PMSF to a final concentration of […] of extraction buffer. The samples were incubated at 4° C. on a nutator for 2 days.
A BCA assay was performed on the dialysates of the PPG+cocktail guanidine extracted samples to determine the total protein concentration in the samples.
Using BCA and SDS-PAGE on the PPG+Cocktail sample, guanidine extracts were evaluated based on SDS-PAGE of equal protein load. The protein concentrations were as follows:
Densitometry was performed on two different protein bands, as follows: […]

type I collagen [8] = test: SDS-PAGE of type I collagen irradiated to 45 kGy with stabilizers (Example 17); conditions: gamma irradiation at -20° C.
Procedure: In this experiment, type I collagen at −20° C., −80° C. or freeze-dried at 4° C. were irradiated with gamma radiation to a total dose of 45 kGy in the presence of various stabilizers.
• 1M thiourea (Sigma T8656) in water; • 0.5M coumarin (Sigma CC4261) in ethanol; • 0.5M 0-coumaric acid (Sigma C4400) in ethanol; • 0.5M curcumin (Sigma C1386) in ethanol; • 1M L-cysteine (Sigma C6852) in water; • 1M 1,3-dimethyl-2-thiourea (Aldrich 534-13-4) in water; • 1M 2-mercaptoethylamine (Sigma M6500) in water; and • 1M 1,3-dimethylurea (Sigma D6254) in water. Phosphate buffer solution of 40 mM sodium phosphate and 100 mM NaCl; pH=7.66. Methods: The following samples were prepared to a final volume of 0.5 ml: • 1 mg/ml collagen in 5 mM acetic acid (control); • 1 mg/ml collagen+0.1 M coumaric acid; • 1 mg/ml collagen+5 mM curcumin; • 1 mg/ml collagen+0.1M L-cysteine; • 1 mg/ml collagen+0.1M 1,3-dimethyl-2-thiourea; • 1 mg/ml collagen+0.1M thiourea; • 1 mg/ml collagen+0.1M 2-mercaptoethylamine; and • 1 mg/ml collagen+0.1M 1,3-dimethylurea. The samples were irradiated as follows: • freeze-dried; temperature:4.7° C.; dose rate: 1.656 kGy/hr; total dose:45 kGy; • temperature:−20.5° C.; dose rate:1.537 kGy/hr; total does:45 kGy; and • […]; dose rate:1.530-1.528 kGy/hr;45 kGy. Following irradiation, the samples were analyzed by SDS-PAGE. Additionally, the samples were diluted 1:2 with water to give collagen concentrations of 0.5 mg/ml and a turbidity assay was performed to detect collagen fibril formation. Collagen fibril formation was initiated by adding 100 μl of phosphate buffer solution. The assay was done in triplicate using a microtiter plate reader at 340 nm wavelength.

collagen = test: Turbidity assay of liquid and gel collagen irradiated on dry ice (Example 18); type: biochemical; conditions: frozen on dry ice, 48.73 to 53.38 kGy
Procedure: The samples were gamma irradiated at […] (frozen on dry ice) at dose rates of […] to a total dose of 48.73 to 53.38 kGy. The irradiated samples were analyzed by SDS-PAGE. Additionally, the samples were diluted 1:2 with water to give collagen concentrations of 0.5 mg/ml and a turbidity assay was performed to detect collagen fibril formation. Collagen fibril formation was initiated by adding 100 μl of phosphate buffer solution. The assay was done in triplicate using a microtiter plate reader at 340 nm wavelength.

porcine AV heart valves = test: HPLC analysis of frozen AV heart valve cusps irradiated to 30 kGy at -20° C. (Example 3); conditions: 1.584 kGy/hr
Procedure: In this experiment, frozen porcine AV heart valves soaked in various solvents were gamma irradiated to a total dose of 30 kGy at 1.584 kGy/hr at −20° C. 5. […] 6. Incubated tubes at 4° C. with nutating for ˜46 hours. 9. Frozen samples were then irradiated at −20° C. at a rate of 1.584 kGy/hr to a total dose of 30 kGy.

Compound: polypropylene glycol 400 [PPG 400]
HPLC analysis, irradiated versus not irradiated heart valve [1]: nearly identical

Compound: CNC(=S)NC [1,3-dimethyl-2-thiourea]
fibril formation after irradiation (turbidity assay) (type I collagen [2]): could form fibrils after irradiation | fibril formation after irradiation (turbidity assay) (type I collagen [2]; irradiated at -80° C.): could form fibrils after irradiation

Compound: CCO [ethanol]
fibril formation in turbidity assay (ACL collagen [3]): could not form fibrils | yield for 50 kGy ACL collagen based on the densitometry of alpha 1 and 2 chains (ACL collagen [4]): 77%

Compound: CC(=O)O [0.5N HOAc, acetic acid]
yield of purified pepsin-digested collagen at 50 kGy (ACL collagen [5]; without ascorbate, -80° C.): 73%

solubility of the stock solution in PPG [6]: not 100% soluble
Compound: O=C(O)/C=C/c1ccc(O)cc1 [Coumaric Acid]

Compound: OC[C@H]1O[C@H](O[C@H]2O[C@H](CO)[C@@H](O)[C@H](O)[C@H]2O)[C@H](O)[C@@H](O)[C@@H]1O [Trehalose, D(+)-trehalose]
protection of guanidine extractable proteins by SDS-PAGE [7]: least protection

Compound: COc1cc(/C=C/C(=O)CC(=O)/C=C/c2ccc(O)c(OC)c2)ccc1O [curcumin]
protective effect on collagen (type I collagen [8]): less than that observed with thiourea and 1,3-dimethyl-2-thiourea

solubility of the stock solution in PPG [6]: not soluble | soluble at (in PPG) [6]: 125 mM
Compound: Cc1c(C)c2c(c(C)c1O)CCC(C)(C(=O)O)O2 (stereo not shown) [Trolox C, 6-hydroxy-2,5,7,8-tetramethylchroma-2 carboxylic acid]

Compound: CNC(=O)NC [1,2-dimethylurea, 1,3-dimethylurea]
protective effect on collagen (type I collagen [8]): less than that observed with thiourea and 1,3-dimethyl-2-thiourea

Compound: NCCS [2-mercaptoethylamine]
protective effect on collagen (type I collagen [8]): less than that observed with thiourea and 1,3-dimethyl-2-thiourea | fibril formation after irradiation (turbidity assay) (type I collagen [2]; irradiated at -80° C.): could form fibrils after irradiation

Compound: N[C@@H](Cc1c[nH]cn1)C(=O)O [histidine, L-histidine]
protection of guanidine extractable proteins by SDS-PAGE [7]: most promising results

Compound: CC(O)CO (stereo not shown) [propanediol, 1,2-propanediol]
fibril formation in turbidity assay (ACL collagen [3]): could not form fibrils

solubility of the stock solution in PPG [6]: soluble
Compound: CCCOC(=O)c1cc(O)c(O)c(O)c1 [n-Propyl Gallate]

Compound: CC(O)C(C)O (stereo not shown) [butanediol, 2,3-butanediol]
yield for 50 kGy ACL collagen based on the densitometry of alpha 1 and 2 chains (ACL collagen [4]): 88%

Compound: C[N+](C)(C)[C@@H](Cc1c[nH]c(=S)[nH]1)C(=O)[O-] [ergothionine]
protection of guanidine extractable proteins by SDS-PAGE [7]: good protection of proteins in the lower ⅔ of the gel

Compound: O=C1O[C@H]([C@@H](O)CO)C([O-])=C1O.[Na+] [ascorbate, sodium ascorbate]
yield of purified pepsin-digested collagen at 50 kGy (ACL collagen [5]; with ascorbate (200 mM) in 20 mM sodium phosphate pH 7.6 without salt, -80° C.): 75% | yield of purified pepsin-digested collagen at 50 kGy (ACL collagen [5]; with ascorbate (200 mM) in 0.5N HOAc pH 3.4, -80° C.): 83% | yield of purified pepsin-digested collagen at 50 kGy (ACL collagen [5]; with ascorbate (200 mM) in high salt (20 mM sodium phosphate pH 7.6/1M NaCl), -80° C.): 40% | protection of guanidine extractable proteins by SDS-PAGE [7]: most promising results | protection of gel or liquid collagen (turbidity assay) (collagen): most effective

Compound: N[C@@H](CS)C(=O)O [cysteine, L-cysteine]
protective effect on collagen (type I collagen [8]): less than that observed with thiourea and 1,3-dimethyl-2-thiourea | fibril formation after irradiation (turbidity assay) (type I collagen [2]; irradiated at -80° C.): could form fibrils after irradiation

Compound: C[S+](C)[O-] [DMSO, dimethyl sulfoxide]
HPLC analysis, preservation of peaks after irradiation (porcine AV heart valves; listed as 20% DMSO): reproduced these peaks more faithfully | HPLC analysis, preservation of peaks after irradiation (porcine AV heart valves; listed as 50% DMSO): slightly more effective
